Test results published in ChEMBL document CHEMBL4118231, “Pyrroloquinoline scaffold-based 5-HT6R ligands: Synthesis, quantum chemical and molecular dynamic studies, and influence of nitrogen atom position in the scaffold on affinity” (Bioorg Med Chem, 2018).

Molecular target: 5-hydroxytryptamine receptor 6 (Homo sapiens, UniProt P50406)
Assay: Displacement of [3H]LSD from human 5-HT6R expressed in HEK293 cell membranes after 1 hr by microbeta counting method

5-hydroxytryptamine receptor 6, sequence (P50406 whole entry): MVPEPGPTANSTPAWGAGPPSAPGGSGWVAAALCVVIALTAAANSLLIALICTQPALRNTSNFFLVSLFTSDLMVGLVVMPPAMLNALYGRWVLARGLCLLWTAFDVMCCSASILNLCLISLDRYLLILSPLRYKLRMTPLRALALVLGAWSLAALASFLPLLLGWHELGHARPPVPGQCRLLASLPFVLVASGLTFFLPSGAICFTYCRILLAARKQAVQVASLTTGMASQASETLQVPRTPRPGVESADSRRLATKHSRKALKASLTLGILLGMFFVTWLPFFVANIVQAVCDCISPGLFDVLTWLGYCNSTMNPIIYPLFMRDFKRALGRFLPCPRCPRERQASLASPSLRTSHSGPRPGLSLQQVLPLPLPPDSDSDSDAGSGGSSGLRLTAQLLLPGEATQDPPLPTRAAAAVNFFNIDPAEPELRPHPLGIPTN

SMILES	Ki [nM]
O=S(=O)(c1cccc(Cl)c1)n1cc(C2=CCNCC2)c2ccc3cccnc3c21	49
O=S(=O)(c1cccc(F)c1)n1cc(C2=CCNCC2)c2ccc3ncccc3c21	365
O=S(=O)(c1cccc(Br)c1)n1cc(C2=CCNCC2)c2ccc3ncccc3c21	137
O=S(=O)(c1ccccc1)n1cc(C2=CCNCC2)c2ccc3cccnc3c21	131
O=S(=O)(c1cccc(Br)c1)n1cc(C2=CCNCC2)c2ccc3cccnc3c21	61
O=S(=O)(c1ccccc1)n1cc(C2=CCNCC2)c2ccc3ncccc3c21	711
O=S(=O)(c1cccc(Cl)c1)n1cc(C2=CCNCC2)c2ccc3ncccc3c21	427
O=S(=O)(c1cccc(F)c1)n1cc(C2=CCNCC2)c2ccc3cccnc3c21	45
Clc1cccc(Cn2cc(C3=CCNCC3)c3ccc4cccnc4c32)c1	269
